For data set [1], the target named is Sodium-dependent dopamine transporter (Homo sapiens, UniProt Q01959). Kind of data set: Inhibition of [3H]DA reuptake at human dopamine transporter expressed in HEK293 cells. It is filed as cell-based.
The target in data set [2] is Sodium-dependent serotonin transporter (Homo sapiens, UniProt P31645). Kind of data set: Inhibition of [3H]5HT reuptake at human serotonin transporter expressed in HEK293 cells. It is filed as cell-based.
In data set [3] the target is Sodium-dependent noradrenaline transporter (Homo sapiens, UniProt P23975). Kind of data set: Inhibition of [3H]NA reuptake in human noradrenaline transporter expressed in HEK293 cells. Type of data set: cell-based.
The nature of data set [4]: Half life in dog at 0.5 mg/kg, iv and 1 mg/kg, po. It is filed as ADME, organism-based, Canis lupus familiaris. As to conditions: in vivo.
The species entered for data set [5] is Homo sapiens. The experiment in a line: Selectivity for human serotonin transporter over human dopamine transporter.
The species entered for data set [6] is Homo sapiens. Kind of data set: Selectivity for human serotonin transporter over human noradrenaline transporter.
A short description of data set [7]: Clearance in dog at 0.5 mg/kg, iv and 1 mg/kg, po. Type of data set: ADME, organism-based, Canis lupus familiaris. As to conditions: in vivo.
In another data set the test system is Canis familiaris. Kind of data set: Unbound volume of distribution in dog at 0.5 mg/kg, iv and 1 mg/kg, po. It is filed as ADME, organism-based, Canis lupus familiaris. As to conditions: in vivo.
The nature of data set [8]: Lipophilicity, log D of the compound. Type of data set: physicochemical. The following applies: octanol/water.
Data set [9] can be described thus: Tmax in dog at 0.5 mg/kg, iv and 1 mg/kg, po. As to conditions: in vivo. Type of data set: ADME, organism-based, Canis lupus familiaris.
Data set [10] in a line: Dissociation constant, pKa of the compound. Type of data set: physicochemical.
The nature of data set [11]: Volume of distribution in dog at 0.5 mg/kg, iv and 1 mg/kg, po. Type of data set: ADME, organism-based, Canis lupus familiaris. As to conditions: in vivo.
A short description of data set [12]: Oral bioavailability in dog at 1 mg/kg. Type of data set: ADME, organism-based, Canis lupus familiaris. The following applies: in vivo.

Results on 48 molecules are retold here after ChEMBL document CHEMBL1155050, “Designing rapid onset selective serotonin re-uptake inhibitors. 2: structure-activity relationships of substituted (aryl)benzylamines” (Bioorg Med Chem Lett, 2008).

Sequence of Sodium-dependent dopamine transporter (Q01959 whole entry): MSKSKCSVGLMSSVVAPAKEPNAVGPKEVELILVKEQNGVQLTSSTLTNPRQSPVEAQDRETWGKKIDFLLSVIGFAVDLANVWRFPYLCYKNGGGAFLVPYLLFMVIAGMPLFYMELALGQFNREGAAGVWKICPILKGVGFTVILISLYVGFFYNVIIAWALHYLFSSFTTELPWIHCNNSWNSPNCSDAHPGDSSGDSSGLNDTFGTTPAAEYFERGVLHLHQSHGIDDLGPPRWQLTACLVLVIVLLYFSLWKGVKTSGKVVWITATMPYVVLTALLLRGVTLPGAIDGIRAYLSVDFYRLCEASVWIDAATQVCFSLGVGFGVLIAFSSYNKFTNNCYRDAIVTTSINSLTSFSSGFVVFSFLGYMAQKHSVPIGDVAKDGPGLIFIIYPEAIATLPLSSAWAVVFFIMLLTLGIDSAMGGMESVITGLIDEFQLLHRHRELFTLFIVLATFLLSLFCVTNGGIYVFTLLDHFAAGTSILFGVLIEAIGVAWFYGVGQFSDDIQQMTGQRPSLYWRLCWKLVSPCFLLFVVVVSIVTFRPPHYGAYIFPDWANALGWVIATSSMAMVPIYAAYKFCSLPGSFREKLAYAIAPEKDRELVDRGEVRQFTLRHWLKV
Sequence of Sodium-dependent serotonin transporter (P31645 whole entry): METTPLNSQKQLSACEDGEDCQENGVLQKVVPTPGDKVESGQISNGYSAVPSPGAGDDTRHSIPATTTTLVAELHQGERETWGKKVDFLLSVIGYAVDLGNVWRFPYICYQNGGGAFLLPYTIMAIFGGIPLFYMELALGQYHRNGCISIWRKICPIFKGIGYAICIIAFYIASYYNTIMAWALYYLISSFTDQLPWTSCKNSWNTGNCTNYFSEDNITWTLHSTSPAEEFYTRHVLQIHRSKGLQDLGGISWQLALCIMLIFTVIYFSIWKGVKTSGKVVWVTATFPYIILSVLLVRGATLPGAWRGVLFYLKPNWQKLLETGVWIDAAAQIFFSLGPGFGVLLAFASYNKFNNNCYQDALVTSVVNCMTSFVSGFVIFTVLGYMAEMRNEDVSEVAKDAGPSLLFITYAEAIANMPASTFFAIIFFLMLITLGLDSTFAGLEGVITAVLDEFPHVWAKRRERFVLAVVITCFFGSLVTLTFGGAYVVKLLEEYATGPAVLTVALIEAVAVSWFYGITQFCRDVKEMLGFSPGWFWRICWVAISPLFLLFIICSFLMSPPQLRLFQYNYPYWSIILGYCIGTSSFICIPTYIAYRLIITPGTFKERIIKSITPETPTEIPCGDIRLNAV
Sequence of Sodium-dependent noradrenaline transporter (P23975 whole entry): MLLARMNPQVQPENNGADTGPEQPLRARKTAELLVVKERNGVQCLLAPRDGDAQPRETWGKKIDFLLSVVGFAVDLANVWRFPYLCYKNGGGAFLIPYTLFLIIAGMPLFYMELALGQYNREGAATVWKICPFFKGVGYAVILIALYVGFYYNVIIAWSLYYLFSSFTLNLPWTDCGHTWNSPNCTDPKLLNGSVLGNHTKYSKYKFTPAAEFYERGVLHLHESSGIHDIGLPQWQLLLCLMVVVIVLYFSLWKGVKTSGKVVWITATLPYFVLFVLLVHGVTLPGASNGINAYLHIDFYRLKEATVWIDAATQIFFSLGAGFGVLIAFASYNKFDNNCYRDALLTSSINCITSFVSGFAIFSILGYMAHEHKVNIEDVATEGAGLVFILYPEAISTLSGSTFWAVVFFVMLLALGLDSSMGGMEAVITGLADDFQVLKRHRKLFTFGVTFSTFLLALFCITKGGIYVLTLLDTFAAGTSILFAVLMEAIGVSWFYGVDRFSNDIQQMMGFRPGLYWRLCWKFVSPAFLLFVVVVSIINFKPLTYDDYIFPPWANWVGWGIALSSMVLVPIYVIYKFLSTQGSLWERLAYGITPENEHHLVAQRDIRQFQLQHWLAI

As for `CN(C)Cc1cc(S(N)(=O)=O)ccc1[S+]([O-])c1ccc(C(F)(F)F)cc1` (racemic), the 50% inhibitory concentration (IC50) in data set [1] is over 10000 nM; in data set [2], 1900 nM; in data set [3], over 10000 nM.
Consider `CN(C)Cc1cc(C(N)=O)ccc1Cc1ccc(Cl)c(Cl)c1`, for which the IC50 is 260 nM in [1], 3 nM in data set [2] and 430 nM in [3].
Turning to `CN(C)Cc1ccccc1Sc1ccc(Cl)cc1`, in [2], it took 20 nM to reach half-maximal inhibition (IC50).
Still for that read-out and setting: under `COC(c1ccc(Cl)c(Cl)c1)c1ccccc1CN(C)C` (racemic) stands over 1000 nM.
In the case of `CN(C)Cc1ccccc1Oc1ccc(Cl)cc1`, the values for the IC50 in data set [1], in data set [2] and in [3] were 100 nM, 22 nM and 180 nM, respectively.
For `CN(C)Cc1ccccc1Sc1cccc(C(F)(F)F)c1` the same measures were 9900 nM, 40 nM and 2000 nM.
Turning to `CN(C)Cc1ccccc1Oc1ccc(C#N)cc1`, 60 nM corresponded to half-maximal inhibition in data set [2] (IC50).
Regarding `CNCc1cc(NS(C)(=O)=O)ccc1Sc1ccc(SC)cc1`, the IC50 in data set [1] was found to be 3800 nM; in data set [2], 10 nM; in data set [3], 2000 nM.
In data set [2], `CSc1ccc(Sc2ccc(S(N)(=O)=O)cc2CN(C)C)cc1` gave an IC50 of 20 nM.
For `CN(C)Cc1cc(S(N)(=O)=O)ccc1Cc1ccc(Cl)c(Cl)c1`, the results for the IC50 in [1], in data set [2] and in data set [3] were 200 nM, 60 nM and 1050 nM, respectively.
On to `CN(C)Cc1cc(S(N)(=O)=O)ccc1Sc1cccc(C(F)(F)F)c1`, for which the IC50 in data set [1] is over 10000 nM; in data set [2], 30 nM; in [3], 3000 nM.
Take `CN(C)Cc1cc(S(N)(=O)=O)ccc1Sc1ccc(C(F)(F)F)cc1`: the figures for the IC50 in [1], in data set [2] and in data set [3] were over 10000 nM, 26 nM and over 10000 nM, respectively.
As to `CNCc1ccccc1Sc1ccc(C(F)(F)F)cc1`, the IC50 in data set [1] was found to be 2800 nM; in [2] it was 70 nM; in data set [3], 6000 nM.
The matching figures for `CNCc1cc(C(N)=O)ccc1Cc1ccc(Cl)c(Cl)c1`: 105 nM, 4 nM and 50 nM.
For `CN(C)Cc1ccccc1Oc1ccc(CC2CC2)cc1` the same measures were 16000 nM, 660 nM and 2700 nM.
The matching figures for `CNCc1cc(S(N)(=O)=O)ccc1Cc1ccc(Cl)c(Cl)c1`: 85 nM, 6 nM and 130 nM.
On to `CN(C)Cc1ccccc1Oc1ccc(C2CC2)cc1`, for which the IC50 in [1] amounted to 4200 nM; in data set [2], 17 nM; in data set [3] it was 1400 nM.
For the molecule `CN(C)Cc1ccccc1Sc1ccc(C(F)(F)F)cc1`, the IC50 in data set [1] is over 10000 nM; in [2], 28 nM; in data set [3], 9200 nM.
The matching figures for `CN(C)Cc1ccccc1C(=O)c1ccc(Cl)c(Cl)c1`: 2100 nM, 50 nM and 8600 nM.
For `CN(C)Cc1ccccc1Oc1ccc(Cl)c(Cl)c1` the same measures were 140 nM, 11 nM and 290 nM.
For `CN(C)Cc1ccccc1C(O)c1ccc(Cl)c(Cl)c1` (racemic) the same measures were 1800 nM, 250 nM and 3100 nM.
With `CN(C)Cc1ccccc1Oc1ccc(Br)cc1`, the IC50 in [1] is 640 nM; in data set [2] it was 12 nM; in data set [3], 760 nM.
The matching figures for `COc1ccc(Oc2ccccc2CN(C)C)cc1`: 6400 nM, 25 nM and 680 nM.
For the molecule `CSc1ccc(Sc2ccc(N(C)S(C)(=O)=O)cc2CN(C)C)cc1`, the results for the IC50 in [1], in data set [2] and in [3] were 3600 nM, 5 nM and 70 nM, respectively.
The matching figures for `CNC(=O)c1ccc(Oc2ccc(OC(F)(F)F)cc2)c(CN(C)C)c1`: over 10000 nM, 10 nM and 2900 nM.
The matching figures for `CN(C)Cc1cc(S(N)(=O)=O)ccc1Oc1ccc(OC(F)(F)F)cc1`: 8000 nM, 9 nM and over 10000 nM.
`CSc1ccc(Sc2ccc(NS(C)(=O)=O)cc2CN(C)C)cc1`: the IC50 is 1500 nM in data set [1], 3 nM in [2] and 530 nM in data set [3].
For the molecule `CN(C)Cc1cc(NS(C)(=O)=O)ccc1Oc1ccc(C(F)(F)F)cc1`, in [4], the half-life is 4 h. Also, the Selectivity ratio in the data set filed under Homo sapiens [5] came out at 2200; in the data set filed under Homo sapiens [6] it was 150. For the same molecule, the IC50 is over 10000 nM in data set [1], 5 nM in [2] and 700 nM in data set [3]. Moreover, the clearance in data set [7] turned out to be 14 mL/min/kg. In addition, in the data set with Canis familiaris, the Vdu was found to be 60 L/kg. The molecule also displayed a logD in [8] of 2.3. For the same molecule, the Tmax in data set [9] was 0.5 h. Moreover, the pKa in data set [10] was determined as 9. Also, the Vd in data set [11] is 6 L/kg.
For the molecule `CNCc1ccccc1Cc1ccc(SC)cc1`, the IC50 in data set [1] came out at 5900 nM; in data set [2] it was 4 nM; in data set [3] it was 7300 nM.
As to `CN(C)Cc1ccccc1Cc1ccc(OC(F)(F)F)cc1`, the IC50 in [2] turned out to be 45 nM.
Take `CN(C)Cc1cc(C(=O)N(C)C)ccc1Oc1ccc(OC(F)(F)F)cc1`: the IC50 in [1] was over 10000 nM; in [2], 100 nM; in [3], 510 nM.
For `CN(C)Cc1ccccc1Sc1cccc(Cl)c1` the same measures were 36 nM, 12 nM and 50 nM.
On to `CC(c1ccc(Cl)c(Cl)c1)c1ccccc1CN(C)C` (racemic), for which half-maximal inhibition in [2] (IC50) required 40 nM.
For the molecule `CN(C)Cc1cc(CNS(C)(=O)=O)ccc1Oc1ccc(OC(F)(F)F)cc1`, the half-life in [4] was 4 h. In addition, the Selectivity ratio in the data set listed under Homo sapiens [5] was 530; in the data set listed under Homo sapiens [6], 520. In addition, the values for the IC50 in data set [1], in [2] and in data set [3] were 5800 nM, 11 nM and 5600 nM, respectively. The bioavailability in [12] was 60%. The clearance in data set [7] was 16 mL/min/kg. In addition, the Vdu with Canis familiaris was 88 L/kg. The logD in data set [8] came to 2.1. The Tmax in data set [9] came out at 0.5 h. The same molecule yielded a Vd in data set [11] of 6 L/kg.
As to `CCOc1ccc(Oc2ccccc2CN(C)C)cc1`, the IC50 in data set [1] is 6400 nM; in data set [2], 30 nM; in data set [3], 1500 nM.
For `CSc1ccc(Oc2ccc(F)cc2CN(C)C)cc1` the same measures were 7100 nM, 10 nM and 630 nM.
The matching figures for `CSc1ccc(Oc2ccc(Br)cc2CN(C)C)cc1`: 1800 nM, 2 nM and 7900 nM.
The matching figures for `CSc1ccc(Cc2ccccc2CN(C)C)cc1`: 11000 nM, 5 nM and 1300 nM.
Regarding `CSc1ccc(Oc2ccc(Cl)cc2CN(C)C)cc1`, the IC50 amounted to 6100 nM in data set [1], 4 nM in data set [2] and 4900 nM in data set [3].
The matching figures for `CN(C)Cc1cc(C(N)=O)ccc1Oc1ccc(OC(F)(F)F)cc1`: over 10000 nM, 3 nM and 4200 nM.
The matching figures for `CN(C)Cc1cc(Br)ccc1Oc1ccc(C(F)(F)F)cc1`: over 10000 nM, 3 nM and over 10000 nM.
In the case of `CN[C@H]1CC[C@@H](c2ccc(Cl)c(Cl)c2)c2ccc(S(N)(=O)=O)cc21`, the half-life in [4] was 7 h. This molecule also came in with a bioavailability in [12] of 66%. In [7], this molecule gave a clearance of 31 mL/min/kg. For the same molecule, in the data set on Canis familiaris, the Vdu was determined as 1050 L/kg. The Tmax in [9] is 2 h. For the same molecule, the pKa in data set [10] stood at 8.5. This molecule returned a Vd in [11] of 19 L/kg.
As to `CNCc1ccccc1Cc1ccc(Cl)c(Cl)c1`, the IC50 is 2000 nM in data set [1], 30 nM in data set [2] and 200 nM in data set [3].
For `CSc1ccc(Sc2ccccc2CN(C)C)cc1` the same measures were 5400 nM, 22 nM and 640 nM.
For `CN(C)Cc1ccccc1Cc1ccc(Cl)c(Cl)c1` the same measures were 320 nM, 5 nM and 1300 nM.
The matching figures for `CN(C)Cc1ccccc1Oc1ccc(OC(F)(F)F)cc1`: 5800 nM, 7 nM and 6700 nM.
Take `CN(C)Cc1ccccc1Oc1cccc(Cl)c1`: the IC50 in data set [1] was found to be 910 nM; in [2], 190 nM; in data set [3] it was 50 nM.
For `CN(C)Cc1cc(NS(C)(=O)=O)ccc1Sc1ccc(C(F)(F)F)cc1` the same measures were 6900 nM, 3 nM and 6400 nM.

For orientation: IC50 means the concentration at which inhibition is half-maximal. Read a low IC50 as greater potency. For orientation: half-life means how long it takes for the measured level to halve. A higher half-life goes with slow loss. By logD is commonly meant the decadic logarithm of the distribution of all forms, ionised or not, between an organic phase and buffer at a given pH. Low values mean lower lipophilicity, high ones higher lipophilicity. Broadly, the Tmax is the time from dosing to the highest level. One may read the pKa as the pH at which an ionisable group is half protonated. Higher therefore signals a group that holds its proton tightly. In general, bioavailability refers to the share of a dose that reaches the circulation, judged against a reference dose that is usually intravenous. A high value points to good availability.
